In US20250312499A1, “KISSPEPTIN RECEPTOR (KISS1R) TARGETED THERAPEUTICS AND USES THEREOF” (priority 2024, published 2025) one finds Ki data, which are given here for 19 compounds.

In the assay the target is human kisspeptin receptor (Homo sapiens (Human), UniProt Q969F8). As to the kind of experiment: Human KISS1R binding assay (membrane competition binding). The conditions noted are these: 90 min at room temperature; competition with 0.2 nM [125I]-metastin (45-54); Flp-In T-Rex 293 kisspeptin membranes; metal complexes nonradioactive Ga, In, Lu; read-out: hKiSSR Binding Ki (90 min). A digest of the protocol:
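Membranes from tetracycline-induced (48 h) Flp-In T-Rex 293 cells expressing receptor, 5–10 μg, incubated 90 min at room temperature with 0.2 nM [125I]-metastin (45-54) and competitor (typically 0–10,000 nM) in Tris/Mg/Ca/EGTA/0.1% BSA, pH 7.4. Filtration, washing, counting; Ki by non-linear regression.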

Square brackets hold non-standard residues; d marks the D form. Peptide text beside a SMILES is read from it. * marks the point of attachment. DOTA = O=C(O)CN1CCN(CC(=O)O)CCN(CC(=O)*)CCN(CC(=O)O)CC1; Ala(9-anthryl) = N[C@@H](Cc1c2ccccc2cc2ccccc12)C(=O)O; Gly(N-(3-F-4-Me-benzyl)) = Cc1ccc(CNCC(=O)*)cc1F; Gly(N-3-F-4-Me-benzyl) = Cc1ccc(CNCC(=O)O)cc1F; Bpa = N[C@@H](Cc1ccc(C(=O)c2ccccc2)cc1)C(=O)O; Gly(Nα-4-MeO-benzyl) = COc1ccc(CNCC(=O)*)cc1; Api(1-amidino) = N=C(N)N1CCC(N)(C(=O)O)CC1; Phe(4-CN) = N#Cc1ccc(C[C@H](N)C(=O)O)cc1; HO(CH2CH2O)2CH2CH2CO = O=C(CCOCCOCCO)*; 2Nal = N[C@@H](Cc1ccc2ccccc2c1)C(=O)O; d2Nal = N[C@H](Cc1ccc2ccccc2c1)C(=O)O; 4Pal = N[C@@H](Cc1ccncc1)C(=O)O; d4Pal = N[C@H](Cc1ccncc1)C(=O)O; Cha = N[C@@H](CC1CCCCC1)C(=O)O; Lauroyl = CCCCCCCCCCCC(=O)*; 4Amb = NCc1ccc(C(=O)O)cc1; Octanoyl = CCCCCCCC(=O)*; Api = NC1(C(=O)O)CCNCC1; Ahx = NCCCCCC(=O)O; azaGly = NNC(=O)O; Sar = CNCC(=O)O

Sequence of human kisspeptin receptor (Q969F8 whole entry): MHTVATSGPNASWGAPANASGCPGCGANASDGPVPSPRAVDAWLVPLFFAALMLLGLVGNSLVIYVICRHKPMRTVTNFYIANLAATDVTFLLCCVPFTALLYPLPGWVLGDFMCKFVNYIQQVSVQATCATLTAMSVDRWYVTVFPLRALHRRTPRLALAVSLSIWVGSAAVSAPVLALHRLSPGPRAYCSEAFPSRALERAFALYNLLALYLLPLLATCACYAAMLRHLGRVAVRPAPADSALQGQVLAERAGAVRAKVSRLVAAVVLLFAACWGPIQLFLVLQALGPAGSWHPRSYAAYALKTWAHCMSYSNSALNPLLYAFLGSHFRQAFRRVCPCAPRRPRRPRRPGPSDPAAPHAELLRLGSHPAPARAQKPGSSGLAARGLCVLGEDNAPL

In the case of `Cc1ccc(CNCC(=O)N2CCC(NC(=O)[C@H](CC(C)C)NC(=O)NNC(=O)[C@H](Cc3ccccc3)NC(=O)[C@@H](NC(=O)[C@H](CC(N)=O)NC(=O)[C@H](CCCCNC(=O)CN3CCN(CC(=O)O)CCN(CC(=O)O)CCN(CC(=O)O)CC3)NC(=O)[C@@H](Cc3ccc(O)cc3)NC(=O)CCOCCOCCO)[C@@H](C)O)(C(=O)N[C@@H](Cc3c[nH]c4ccccc34)C(N)=O)CC2)cc1F` [Compound 379] ({HO(CH2CH2O)2CH2CH2CO}-[dY]K(DOTA)NTF[azaGly]L[Api](Gly(N-(3-F-4-Me-benzyl)))W-NH2), the Ki is below 10 nM.

For `CC(C)C[C@H](NC(=O)NNC(=O)[C@H](Cc1ccccc1)NC(=O)[C@@H](NC(=O)[C@H](CC(N)=O)NC(=O)[C@H](Cc1c2ccccc2cc2ccccc12)NC(=O)[C@@H](Cc1ccc(O)cc1)NC(=O)CCCCCNC(=O)CN1CCN(CC(=O)O)CCN(CC(=O)O)CCN(CC(=O)O)CC1)[C@@H](C)O)C(=O)NC1(C(=O)N[C@@H](Cc2ccncc2)C(N)=O)CCN(C(=N)N)CC1` [Compound 222] ({DOTA-Ahx}-[dY][Ala(9-anthryl)]NTF[azaGly]L[Api(1-amidino)][4Pal]-NH2), the Ki is below 10 nM. As for `CNCC(=O)N1CCC(NC(=O)[C@H](CC(C)C)NC(=O)NNC(=O)[C@H](Cc2ccccc2)NC(=O)[C@@H](NC(=O)[C@H](CC(N)=O)NC(=O)[C@@H](Cc2ccc3ccccc3c2)NC(=O)[C@@H](Cc2ccc(O)cc2)NC(=O)CCCCCNC(=O)CN2CCN(CC(=O)O)CCN(CC(=O)O)CCN(CC(=O)O)CC2)[C@@H](C)O)(C(=O)N[C@@H](Cc2c[nH]c3ccccc23)C(N)=O)CC1` [Compound 201] ({DOTA-Ahx}-[dY][d2Nal]NTF[azaGly]L[Api](Sar)W-NH2), the Ki is below 10 nM. Regarding `CC(C)C[C@H](NC(=O)NNC(=O)[C@H](Cc1ccccc1)NC(=O)CCCCCNC(=O)[C@H](Cc1ccc2ccccc2c1)NC(=O)[C@@H](Cc1ccc(O)cc1)NC(=O)CN1CCN(CC(=O)O)CCN(CC(=O)O)CCN(CC(=O)O)CC1)C(=O)NC1(C(=O)N[C@@H](Cc2ccccc2)C(N)=O)CCN(C(=N)N)CC1` [Compound 289] ({DOTA}-[dY][2Nal][Ahx]F[azaGly]L[Api(1-amidino)]F-NH2), the Ki was below 10 nM. As for `Cc1ccc(CNCC(=O)N2CCC(NC(=O)[C@H](CC(C)C)NC(=O)NNC(=O)[C@H](Cc3ccccc3)NC(=O)[C@@H](NC(=O)[C@H](CC(N)=O)NC(=O)[C@@H](CCCCNC(=O)CN3CCN(CC(=O)O)CCN(CC(=O)O)CCN(CC(=O)O)CC3)NC(=O)CCOCCOCCO)[C@@H](C)O)(C(=O)N[C@@H](Cc3ccncc3)C(N)=O)CC2)cc1F` [Compound 254] ({HO(CH2CH2O)2CH2CH2CO}-[dK](DOTA)NTF[azaGly]L[Api](Gly(N-(3-F-4-Me-benzyl)))[4Pal]-NH2), the figure is below 10 nM; as for `Cc1ccc(CNCC(=O)N2CCC(NC(=O)c3cccc(OCCNC(=O)[C@H](Cc4ccccc4)NC(=O)CCCCCNC(=O)CN4CCN(CC(=O)O)CCN(CC(=O)O)CCN(CC(=O)O)CC4)c3)(C(=O)N[C@@H](Cc3c[nH]c4ccccc34)C(N)=O)CC2)cc1F` [Compound 134], 10 to 100 nM; as for `CNCC(=O)N1CCC(NC(=O)[C@H](CC(C)C)NC(=O)NNC(=O)[C@H](Cc2ccccc2)NC(=O)[C@@H](NC(=O)[C@H](CC(N)=O)NC(=O)[C@H](CCCCNC(=O)CN2CCN(CC(=O)O)CCN(CC(=O)O)CCN(CC(=O)O)CC2)NC(=O)[C@@H](Cc2ccc(O)cc2)NC(=O)CNCc2ccc(C)c(F)c2)[C@@H](C)O)(C(=O)N[C@@H](Cc2c[nH]c3ccccc23)C(N)=O)CC1` [Compound 386] (H-[Gly(N-3-F-4-Me-benzyl)][dY]K(DOTA)NTF[azaGly]L[Api](Sar)W-NH2), below 10 nM. As for `CCc1cc(-c2ccccc2OCCNC(=O)[C@H](Cc2ccccc2)NC(=O)CCCCCNC(=O)CN2CCN(CC(=O)O)CCN(CC(=O)O)CCN(CC(=O)O)CC2)ccc1C(=O)NC1(C(=O)N[C@@H](Cc2c[nH]c3ccccc23)C(N)=O)CCN(C(=O)CNCc2ccc(C)c(F)c2)CC1` [Compound 284], the figure is 10 to 100 nM; as for `COc1ccc(CNCC(=O)N2CCC(NC(=O)[C@H](CC(C)C)NC(=O)NNC(=O)[C@H](Cc3ccccc3)NC(=O)[C@@H](NC(=O)[C@H](CC(N)=O)NC(=O)CCCCCNC(=O)CN3CCN(CC(=O)O)CCN(CC(=O)O)CCN(CC(=O)O)CC3)[C@@H](C)O)(C(=O)N[C@@H](Cc3ccccc3)C(N)=O)CC2)cc1` [Compound 235] ({DOTA-Ahx}-NTF[azaGly]L[Api](Gly(Nα-4-MeO-benzyl))F-NH2), below 10 nM.

As for `CCCCCCCCCCCC(=O)N[C@H](Cc1ccc(O)cc1)C(=O)N[C@@H](CCCCNC(=O)CN1CCN(CC(=O)O)CCN(CC(=O)O)CCN(CC(=O)O)CC1)C(=O)N[C@@H](CC(N)=O)C(=O)N[C@H](C(=O)N[C@@H](Cc1ccccc1)C(=O)NNC(=O)N[C@@H](CC(C)C)C(=O)NC1(C(=O)N[C@@H](Cc2ccc(O)cc2)C(N)=O)CCN(C(=N)N)CC1)[C@@H](C)O` [Compound 331] (Lauroyl-[dY]K(DOTA)NTF[azaGly]L[Api(1-amidino)]Y-NH2), the Ki is below 10 nM. For `Cc1ccc(CNCC(=O)N2CCC(NC(=O)[C@H](CC(C)C)NC(=O)NNC(=O)[C@H](Cc3ccccc3)NC(=O)[C@@H](NC(=O)[C@H](CC(N)=O)NC(=O)[C@@H](Cc3c[nH]c4ccccc34)NC(=O)[C@@H](Cc3ccc(O)cc3)NC(=O)CCCCCNC(=O)[C@H](Cc3ccc(O)cc3)NC(=O)CNC(=O)c3ccc(CNC(=O)CN4CCN(CC(=O)O)CCN(CC(=O)O)CCN(CC(=O)O)CC4)cc3)[C@@H](C)O)(C(=O)N[C@@H](Cc3c[nH]c4ccccc34)C(N)=O)CC2)cc1F` [Compound 149] ({DOTA-4Amb}-GY[Ahx][dY][dW]NTF[azaGly]L[Api](Gly(N-(3-F-4-Me-benzyl)))W-NH2), the Ki was below 10 nM. As for `CCCCCCCC(=O)N[C@H](Cc1ccc(O)cc1)C(=O)N[C@@H](CCCCNC(=O)CN1CCN(CC(=O)O)CCN(CC(=O)O)CCN(CC(=O)O)CC1)C(=O)N[C@@H](CC(N)=O)C(=O)N[C@H](C(=O)N[C@@H](Cc1ccccc1)C(=O)NNC(=O)N[C@@H](CC(C)C)C(=O)NC1(C(=O)N[C@@H](Cc2ccc(O)cc2)C(N)=O)CCN(C(=N)N)CC1)[C@@H](C)O` [Compound 332] (Octanoyl-[dY]K(DOTA)NTF[azaGly]L[Api(1-amidino)]Y-NH2), the figure is below 10 nM; as for `CNCC(=O)N1CCC(NC(=O)[C@H](CC(C)C)NC(=O)NNC(=O)[C@H](Cc2ccccc2)NC(=O)[C@@H](NC(=O)[C@H](CC(N)=O)NC(=O)[C@H](Cc2ccc(C(=O)c3ccccc3)cc2)NC(=O)[C@@H](Cc2ccc(O)cc2)NC(=O)CCCCCNC(=O)CN2CCN(CC(=O)O)CCN(CC(=O)O)CCN(CC(=O)O)CC2)[C@@H](C)O)(C(=O)N[C@H](Cc2c[nH]c3ccccc23)C(N)=O)CC1` [Compound 345] ({DOTA-Ahx}-[dY][Bpa]NTF[azaGly]L[Api](Sar)[dW]-NH2), below 10 nM. With `CC(C)C[C@H](NC(=O)NNC(=O)[C@H](Cc1ccccc1)NC(=O)[C@@H](NC(=O)[C@H](CC(N)=O)NC(=O)[C@H](Cc1ccc2ccccc2c1)NC(=O)[C@@H](Cc1ccc(O)cc1)NC(=O)CCCCCNC(=O)CN1CCN(CC(=O)O)CCN(CC(=O)O)CCN(CC(=O)O)CC1)[C@@H](C)O)C(=O)NC1(C(=O)N[C@@H](Cc2ccncc2)C(N)=O)CCN(C(=N)N)CC1` [Compound 275] ({DOTA-Ahx}-[dY][2Nal]NTF[azaGly]L[Api(1-amidino)][4Pal]-NH2), the Ki was below 10 nM. As for `Cc1ccc(CNCC(=O)N2CCC(NC(=O)[C@H](CC(C)C)NC(=O)NNC(=O)[C@H](Cc3ccccc3)NC(=O)[C@@H](NC(=O)[C@H](CC(N)=O)NC(=O)[C@@H](CCC(=O)O)NC(=O)c3ccc(CNC(=O)CN4CCN(CC(=O)O)CCN(CC(=O)O)CCN(CC(=O)O)CC4)cc3)[C@@H](C)O)(C(=O)N[C@@H](Cc3ccc(C#N)cc3)C(N)=O)CC2)cc1F` [Compound 242] ({DOTA-4Amb}-[dE]NTF[azaGly]L[Api](Gly(N-(3-F-4-Me-benzyl)))[Phe(4-CN)]-NH2), the figure is below 10 nM; as for `Cc1ccc(CNCC(=O)N2CCC(NC(=O)[C@@H](CC(C)C)SCCNC(=O)[C@H](Cc3ccccc3)NC(=O)CCCCCNC(=O)CN3CCN(CC(=O)O)CCN(CC(=O)O)CCN(CC(=O)O)CC3)(C(=O)N[C@@H](Cc3c[nH]c4ccccc34)C(N)=O)CC2)cc1F` [Compound 137], below 10 nM. `Cc1ccc(CNCC(=O)N2CCC(NC(=O)[C@H](CC(C)C)NC(=O)NNC(=O)[C@H](Cc3ccccc3)NC(=O)[C@@H](NC(=O)[C@H](CC(N)=O)NC(=O)[C@@H](Cc3ccc4ccccc4c3)NC(=O)[C@@H](Cc3ccc(O)cc3)NC(=O)CNC(=O)CN3CCN(CC(=O)O)CCN(CC(=O)O)CCN(CC(=O)O)CC3)[C@@H](C)O)(C(=O)N[C@@H](Cc3c[nH]c4ccccc34)C(N)=O)CC2)cc1F` [Compound 365] ({DOTA}-G[dY][d2Nal]NTF[azaGly]L[Api](Gly(N-(3-F-4-Me-benzyl)))W-NH2): the Ki was below 10 nM.

Consider `Cc1ccc(CNCC(=O)N2CCC(NC(=O)[C@H](CC(C)C)NC(=O)NNC(=O)[C@H](Cc3ccccc3)NC(=O)[C@@H](NC(=O)[C@H](CC(N)=O)NC(=O)c3ccc(CNC(=O)CN4CCN(CC(=O)O)CCN(CC(=O)O)CCN(CC(=O)O)CC4)cc3)[C@@H](C)O)(C(=O)N[C@@H](Cc3ccc(C#N)cc3)C(N)=O)CC2)cc1F` [Compound 240] ({DOTA-4Amb}-NTF[azaGly]L[Api](Gly(N-(3-F-4-Me-benzyl)))[Phe(4-CN)]-NH2), for which the Ki was below 10 nM. As for `Cc1ccc(CNCC(=O)N2CCC(NC(=O)[C@H](CC(C)C)NC(=O)NNC(=O)[C@H](CC3CCCCC3)NC(=O)[C@@H](NC(=O)[C@H](CC(N)=O)NC(=O)[C@@H](Cc3ccncc3)NC(=O)[C@@H](Cc3ccc(O)cc3)NC(=O)CN3CCN(CC(=O)O)CCN(CC(=O)O)CCN(CC(=O)O)CC3)[C@@H](C)O)(C(=O)N[C@@H](Cc3c[nH]c4ccccc34)C(N)=O)CC2)cc1F` [Compound 315] ({DOTA}-[dY][d4Pal]NT[Cha][azaGly]L[Api](Gly(N-(3-F-4-Me-benzyl)))W-NH2), the figure is below 10 nM.
